According to PMC10305181, “A VEGFB-Based Peptidomimetic Inhibits VEGFR2-Mediated PI3K/Akt/mTOR and PLCγ/ERK Signaling and Elicits Apoptotic, Antiangiogenic, and Antitumor Activities” (Pharmaceuticals, 2023):
Bridge positions count the residues as written; N and C are the ends. Peptide text beside a SMILES is read from it.

Tests used:
[1] = tested on: extracellular domain of VEGFR2 (KDR); assay: ELISA-based displacement (competition binding) of biotinylated VEGF from VEGFR2; settings: ELISA, n = 3
Procedure: Figure 3 The binding affinity of C-VGB3 to VEGFR2. (A) ELISA-based displacement assay. The gradient concentrations of C-VGB3 (0, 0.316, 1, 3.16, 10, 31.6, 100, and 316 μM) were used in the assay. […] Error bars denote ± SEM. n = 3; ** p = 0.001, *** p = 0.0001, **** p < 0.0001, ns = not significant; one-way ANOVA. (B) A three-dimensional (produced by UCSF chimera software version 1.12) and a two-dimensional representation (produced by LigPlot software) of interactions in the C-VGB3/VEGFR2 complex is shown on the left and the right, respectively.
A displacement assay was conducted as reported previously with some modifications, including using 20 ng of the VEGFR2 extracellular domains (R&D Systems, Minneapolis, MN, USA). Peptide compounds were assayed three times per experiment.
Figure S6. Evaluating the binding capability of L-VGB3 to VEGFR2
(A) ELISA-based displacement assay. The gradient concentrations of L-VGB3 (3.16, 10, […]
to the extracellular domain of VEGFR2 at applied concentrations. (B) Two-dimensional representation of interactions (produced by LigPlot software) in L-VGB3/VEGFR2 […]

[2] = tested on: signaling proteins in HUVECs; assay: Western blot analysis, HUVECs; type: cell-based, human; settings: 0.40 μM
Procedure: Next, to explore the mechanisms of the antiangiogenic property of C-VGB3, canonical signaling pathways mediated by VEGFR2 were assessed in HUVECs after 24 h incubation with C-VGB3 (0.40 μM). The binding of VEGF to VEGFR2 causes autophosphorylation of its tyrosine kinase domain and increases the receptor′s expression level on the cell surface. Therefore, we evaluated the ability of C-VGB3 to suppress the levels of constitutive and phosphorylated VEGFR2 in HUVECs.
The levels of signaling proteins were investigated by the Western blot assay. 4T1 and HUVE cells stimulated by VEGF (20 ng·mL^−1) were treated with (0.40 μM) or without C-VGB3 (treatment and control groups, respectively) after starvation in a serum-free medium for 24 h. After washing with PBS buffer twice, the cells were treated with RIPA lysis buffer containing (Sigma, St. Louis, MO, USA). Bradford′s test was performed to estimate the protein concentration. Equal amounts of total protein were electrophoresed on a 10% SDS-polyacrylamide gel, separated, and then transferred to a nitrocellulose membrane. Nitrocellulose was soaked in a blocking buffer containing 5% dry milk, Tris-buffered saline, and Tween 20 (TBST) for 1 h at ambient temperature. The nitrocellulose membrane was then washed with wash buffer and treated with antibodies against VEGFR2 p-VEGFR2, AKT, p-AKT, PI3K, mTOR, p-mTOR, NF-κB, p-NFκB, P53, MDM2, Bax, Bcl2, Bid, Bim, Apaf-1, cytochrome c, caspase-9, Fas (CD95), DR4 (CD261), DR5 (CD262), caspase3, caspase7, caspase8, PARP1, ERK 1/2, p-ERK1/2, Ras, Raf, Cdk4, GSK-3β, cyclin D1, vimentin, N-cadherin, E-cadherin, FAK, p-FAK, paxillin, p-paxillin, and β-actin overnight at 4 °C. The next steps were performed as described previously. Because molecular weight ranges of target signaling proteins are very close, individual gels were run for separate signaling proteins (Figure S7).

CC(C)C[C@@H]1NC(=O)CNC(=O)[C@H](CC(=O)O)NC(=O)[C@H](CC(=O)O)NC(=O)[C@@H]2CCCN2C(=O)[C@@H]2CCCN2C(=O)[C@H](CCCNC(=N)N)NC(=O)[C@@H](NC(=O)[C@@H](N)CCC(=O)O)CSSC[C@@H](C(=O)O)NC1=O [C-VGB3] (H-ECRPPDDGLC-OH; disulfide 2-10)
inhibition of binding of bt-VEGF to KDR ([1]; 0-316 μM): inhibits the binding of biotinylated VEGF (bt-VEGF) to KDR dose-dependently | displacement of btVEGF165 ([1]; 100 μM, ectodomain of VEGFR2): 58% | AKT level ([2]; 24 h, p < 0.0001): markedly reduced | CDK4 level ([2]; 24 h, p < 0.0001): decreased | RAS level ([2]; 24 h, p < 0.0001): decreased | mTOR total expression ([2]; 24 h, p < 0.0001): strongly suppressed | p-AKT level ([2]; 24 h, p < 0.0001): markedly reduced | p-VEGFR2 formation ([2]; 24 h, p < 0.0001): markedly inhibited | CyclinD1 level ([2]; 24 h, p = 0.0001): decreased | p-ERK1/2 level ([2]; 24 h, p = 0.0001): decreased | GSK3 expression ([2]; 24 h, p = 0.001): increased expression | NF-κB phosphorylation ([2]; 24 h, p = 0.001): suppressed | PI3K expression level ([2]; 24 h, p = 0.001): decreased | RAF level ([2]; 24 h, p = 0.001): decreased | VEGFR2 level ([2]; 24 h, p = 0.001): markedly inhibited | mTOR phosphorylation ([2]; 24 h, p = 0.001): strongly suppressed | ERK1/2 level ([2]; 24 h, p = 0.02): decreased | NF-κB expression ([2]; 24 h, p = 0.02): decreased | increase in cleaved PARP1 ([2]; HUVECs (first of 'respectively'), p < 0.0001): 3.50 fold | increase in Bax/Bcl2 ratio ([2]; HUVECs): approximately 3.35 fold | increased level of cleaved caspase-3 ([2]; HUVECs): 3.8 times | increased level of cleaved caspase-7 ([2]; HUVECs): 3.3 times | increased level of cleaved caspase-9 ([2]; HUVECs): 1.4 times | Bid expression level ([2]; HUVECs, p < 0.0001): increased | Apaf1 ([2]; HUVECs, p = 0.0001): increase | Bax level ([2]; HUVECs, p = 0.0001): increased | Bcl2 expression ([2]; HUVECs, p = 0.0001): decrease | P53 level ([2]; HUVECs, p = 0.0001): enormously increased | Bim level ([2]; HUVECs, p = 0.001): increased | DR4 level ([2]; HUVECs, p = 0.001): increase | MDM2 level ([2]; HUVECs, p = 0.001): markedly decreased | DR5 level ([2]; HUVECs, p = 0.02): increase | Fas expression ([2]; HUVECs, p = 0.02): slightly increased | cytochrome c ([2]; HUVECs, p = 0.02): increase
